Literature values, collected in patent US7956212B2 (XenoPort, Inc., priority 2004, dated 2011).

How the values were obtained:
[1] = following oral administration
[2] = rats
[3] = patients, administered alone

CC(C)(C)C(=O)Oc1ccc(C[C@H](N)C(=O)O)cc1O [NB-355]
levels of levodopa [1]: low

C[C@@](Cc1ccc(O)c(O)c1)(NN)C(=O)O [carbidopa]
absorption following rectal administration [2]: poor

N[C@@H](Cc1ccc(O)c(O)c1)C(=O)O [levodopa, L-3,4-dihydroxyphenylalanine]
half-life of levodopa in plasma [3]: about 50 min
